In brackets after ≈: the same amount, converted by molar mass. Activity calls are given as the source filed them. The calls are words filed in the database; no cut-off is given here.
Columns and labels:
[1] = Selectivity ratio of cytotoxicity against human WI38 cells to MIC for Acinetobacter baumannii ATCC 17978; type: toxicity, cell-based
[2] = Selectivity ratio of cytotoxicity against human WI38 cells to MIC for Klebsiella pneumoniae M6; type: toxicity, cell-based
[3] = system: Acinetobacter baumannii; assay: Antimicrobial activity against Acinetobacter baumannii ATCC 17978 by microdilution broth method; type: functional
[4] = Cytotoxicity against human WI38 cells assessed as cell viability at 20 uM measured after 24 hrs by MTT assay relative to control; type: cell-based, WI-38; details: read-out: Activity
[5] = Selectivity ratio of cytotoxicity against human WI38 cells to MIC for vancomycin sensitive Enterococcus faecalis NCTC 775; type: toxicity, cell-based
[6] = system: DNA; assay: Stabilization of 5'-FAM-TAT-AGA-TAT-AGA-TAT-TTT-ATA-TCT-ATA-TCT-ATA-3'-TAMRA DNA (unknown origin) assessed as reduction in change in melting temperature at 1:1 to 5:1 ligand to DNA ratio measured after 3 hrs by FRET-based assay relative to control; type: ADME, nucleic-acid assay
[7] = system: Staphylococcus aureus; assay: Antibacterial activity against methicillin resistant Staphylococcus aureus NCTC 13616 by microdilution broth method; type: functional
[8] = Selectivity ratio of cytotoxicity against human WI38 cells to MIC for multidrug-resistant Pseudomonas aeruginosa NCTC 13437; type: toxicity, cell-based
[9] = Selectivity ratio of cytotoxicity against human WI38 cells to MIC for methicillin resistant Staphylococcus aureus NCTC 13616; type: toxicity, cell-based
[10] = system: Enterococcus faecalis; assay: Antibacterial activity against vancomycin resistant Enterococcus faecalis NCTC 12201 by microdilution broth method; type: functional
[11] = Selectivity ratio of cytotoxicity against human WI38 cells to MIC for vancomycin resistant Enterococcus faecalis NCTC 12201; type: toxicity, cell-based
[12] = Selectivity ratio of cytotoxicity against human WI38 cells to MIC for vancomycin resistant Enterococcus faecium NCTC 12204; type: toxicity, cell-based
[13] = system: Enterococcus faecium; assay: Antibacterial activity against vancomycin resistant Enterococcus faecium NCTC 12204 by microdilution broth method; type: functional
[14] = Selectivity ratio of cytotoxicity against human WI38 cells to MIC for Pseudomonas aeruginosa PAO1; type: toxicity, cell-based
[15] = system: Staphylococcus aureus; assay: Antibacterial activity against methicillin sensitive Staphylococcus aureus NCTC 6571 by microdilution broth method; type: functional
[16] = system: DNA; assay: Stabilization of 5'-FAM-TAT-ATA-TAG-ATA-TTT-TTT-TAT-CTA-TAT-ATA-3'-TAMRA DNA (unknown origin) assessed as reduction in change in melting temperature at 1:1 to 5:1 ligand to DNA ratio measured after 3 hrs by FRET-based assay relative to control; type: ADME, nucleic-acid assay
[17] = Selectivity ratio of cytotoxicity against human WI38 cells to MIC for methicillin sensitive Staphylococcus aureus NCTC 6571; type: toxicity, cell-based
[18] = Selectivity ratio of cytotoxicity against human WI38 cells to MIC for multidrug-resistant Acinetobacter baumannii AYE; type: toxicity, cell-based
[19] = system: Staphylococcus aureus; assay: Antibacterial activity against methicillin resistant Staphylococcus aureus NCTC 13277 by microdilution broth method; type: functional
[20] = Selectivity ratio of cytotoxicity against human WI38 cells to MIC for methicillin resistant Staphylococcus aureus NCTC 13277; type: toxicity, cell-based
[21] = Selectivity ratio of cytotoxicity against human WI38 cells to MIC for multidrug-resistant Klebsiella pneumoniae NCTC 13368; type: toxicity, cell-based
[22] = biological target: T1, DNA repair protein RecN (Escherichia coli) (UniProt P05824); assay: Induction of Escherichia coli K12 MG1655 recN promotor measured at 30 mins interval for 20 hrs by fluorescence assay relative to control; details: Escherichia coli str. K-12 substr. MG1655
T1 sequence (whole entry): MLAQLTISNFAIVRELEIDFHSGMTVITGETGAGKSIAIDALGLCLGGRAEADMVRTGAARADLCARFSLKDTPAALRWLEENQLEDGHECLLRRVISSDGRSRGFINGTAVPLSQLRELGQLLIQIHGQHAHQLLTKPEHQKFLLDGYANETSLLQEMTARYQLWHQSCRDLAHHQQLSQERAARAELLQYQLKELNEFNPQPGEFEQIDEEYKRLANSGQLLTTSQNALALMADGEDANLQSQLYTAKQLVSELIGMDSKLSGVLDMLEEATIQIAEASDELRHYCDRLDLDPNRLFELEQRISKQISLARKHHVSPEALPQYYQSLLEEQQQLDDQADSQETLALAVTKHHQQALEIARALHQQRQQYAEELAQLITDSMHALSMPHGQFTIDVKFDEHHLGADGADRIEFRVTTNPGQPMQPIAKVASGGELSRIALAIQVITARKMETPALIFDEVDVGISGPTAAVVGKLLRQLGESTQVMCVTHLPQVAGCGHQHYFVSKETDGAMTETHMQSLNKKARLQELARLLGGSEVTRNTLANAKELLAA

[23] = biological target: T2, LexA repressor (Escherichia coli) (UniProt P0A7C2); assay: Induction of Escherichia coli K12 MG1655 lexA promotor measured at 30 mins interval for 20 hrs by fluorescence assay relative to control; details: Escherichia coli str. K-12 substr. MG1655
T2 sequence (whole entry): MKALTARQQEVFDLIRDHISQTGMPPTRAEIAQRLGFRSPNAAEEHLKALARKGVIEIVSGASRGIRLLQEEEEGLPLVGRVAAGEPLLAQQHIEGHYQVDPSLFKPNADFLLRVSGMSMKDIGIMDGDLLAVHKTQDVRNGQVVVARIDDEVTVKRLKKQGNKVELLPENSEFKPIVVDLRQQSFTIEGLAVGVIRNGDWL

[24] = biological target: T3, Cell division inhibitor SulA (Escherichia coli K-12) (UniProt P0AFZ5); assay: Induction of Escherichia coli K12 MG1655 sulA promotor measured at 30 mins interval for 20 hrs by fluorescence assay relative to control; details: Escherichia coli str. K-12 substr. MG1655
T3 sequence (whole entry): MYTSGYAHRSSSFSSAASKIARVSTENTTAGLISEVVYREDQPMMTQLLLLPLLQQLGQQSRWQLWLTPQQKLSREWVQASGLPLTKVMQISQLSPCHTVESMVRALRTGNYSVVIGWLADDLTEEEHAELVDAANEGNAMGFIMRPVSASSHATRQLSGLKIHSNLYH

[25] = biological target: T4, Protein RecA (Escherichia coli K-12) (UniProt P0A7G6); assay: Induction of Escherichia coli K12 MG1655 recA promotor measured at 30 mins interval for 20 hrs by fluorescence assay relative to control; details: Escherichia coli str. K-12 substr. MG1655
T4 sequence (whole entry): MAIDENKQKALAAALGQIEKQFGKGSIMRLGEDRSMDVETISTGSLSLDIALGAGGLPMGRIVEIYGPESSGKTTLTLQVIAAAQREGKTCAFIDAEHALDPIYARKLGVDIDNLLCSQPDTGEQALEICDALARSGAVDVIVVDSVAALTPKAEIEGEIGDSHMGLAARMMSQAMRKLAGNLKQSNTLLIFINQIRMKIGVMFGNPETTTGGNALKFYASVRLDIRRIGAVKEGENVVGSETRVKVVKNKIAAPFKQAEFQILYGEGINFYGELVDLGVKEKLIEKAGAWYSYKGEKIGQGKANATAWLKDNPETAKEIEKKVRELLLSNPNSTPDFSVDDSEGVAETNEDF

[26] = system: Enterococcus faecalis; assay: Antibacterial activity against vancomycin sensitive Enterococcus faecalis NCTC 775 by microdilution broth method; type: functional
[27] = system: Pseudomonas aeruginosa; assay: Antimicrobial activity against Pseudomonas aeruginosa PAO1 by microdilution broth method; type: functional

COc1cc2c(cc1OCCCC(=O)Nc1cc(C(=O)Nc3ccc4oc(C(=O)N5CCCCC5)cc4c3)n(C)c1)N=C[C@@H]1CCCN1C2=O
selectivity ratio [1]: 10
selectivity ratio [2]: 10
MIC [3]: 2 µg/mL (≈ 2.94 µM)
viability at 24 h, 20 µM [4]: > 85%
selectivity ratio [5]: 100
fold change (FC) [6]: 3 to 4
MIC [7]: 0.25 µg/mL (≈ 0.367 µM)
selectivity ratio [8]: 10
selectivity ratio [9]: 100
MIC [10]: ≤ 0.125 µg/mL
selectivity ratio [11]: 100
selectivity ratio [12]: 100
MIC [13]: ≤ 0.125 µg/mL
selectivity ratio [14]: 10
MIC [15]: ≤ 0.125 µg/mL
fold change (FC) [16]: 3 to 4
selectivity ratio [17]: 100
selectivity ratio [18]: 10
MIC [19]: 0.5 µg/mL (≈ 0.734 µM)
selectivity ratio [20]: 100
selectivity ratio [21]: 10

COc1c(N2C[C@@H]3CCCN[C@@H]3C2)c(F)cc2c(=O)c(C(=O)O)cn(C3CC3)c12
fold change (FC) [22]: 14 to 32
fold change (FC) [23]: 5 to 13
fold change (FC) [24]: 17 to 41
fold change (FC) [25]: 20 to 35

COc1cc2c(cc1OCCCC(=O)Nc1cc(C(=O)Nc3ccc4sc(C(=O)N5CCSCC5)cc4c3)n(C)c1)N=C[C@@H]1CCCN1C2=O
selectivity ratio [1]: 10
selectivity ratio [2]: 10
MIC [3]: 2 µg/mL (≈ 2.8 µM)
viability at 24 h, 20 µM [4]: > 85%
selectivity ratio [5]: 100
fold change (FC) [6]: 3 to 4
MIC [7]: ≤ 0.125 µg/mL
selectivity ratio [8]: 10
selectivity ratio [9]: 100
MIC [26]: ≤ 0.125 µg/mL
MIC [10]: ≤ 0.125 µg/mL
selectivity ratio [11]: 100
MIC [27]: 64 µg/mL (≈ 89.5 µM)
selectivity ratio [12]: 100
MIC [13]: ≤ 0.125 µg/mL
selectivity ratio [14]: 10
MIC [15]: ≤ 0.125 µg/mL
fold change (FC) [16]: 3 to 4
selectivity ratio [17]: 100
selectivity ratio [18]: 10
MIC [19]: ≤ 0.125 µg/mL
selectivity ratio [20]: 100
selectivity ratio [21]: 10

CCn1cc(C(=O)O)c(=O)c2cc(F)c(N3CCNCC3)cc21
fold change (FC) [22]: 14 to 32
fold change (FC) [23]: 5 to 13
fold change (FC) [24]: 17 to 41
fold change (FC) [25]: 20 to 35

C[C@H]1c2cccc(O)c2C(=O)C2=C(O)[C@]3(O)C(=O)C(C(N)=O)=C(O)[C@@H](N(C)C)[C@@H]3[C@@H](O)[C@@H]21
Activity [22]: inactive
Activity [23]: inactive
Activity [24]: inactive
Activity [25]: inactive
